Test results: ChEMBL document CHEMBL1909046, “DrugMatrix in vitro pharmacology data”

What was measured:
[1] = molecular target: Sodium-dependent noradrenaline transporter (Homo sapiens, UniProt P23975); assay: DRUGMATRIX: Norepinephrine Transporter radioligand binding (ligand: [125I] RTI-55); type: cell membranes, MDCK, Membrane; conditions: Not Active = under 50% inhibition at 10 µM
[2] = molecular target: T1, Type-2 angiotensin II receptor (Homo sapiens, UniProt P50052); type: cell-based; conditions: cho-k1; note: in other assays of this panel Not Active means under 50% inhibition at 10 µM
T1 sequence (P50052 whole entry): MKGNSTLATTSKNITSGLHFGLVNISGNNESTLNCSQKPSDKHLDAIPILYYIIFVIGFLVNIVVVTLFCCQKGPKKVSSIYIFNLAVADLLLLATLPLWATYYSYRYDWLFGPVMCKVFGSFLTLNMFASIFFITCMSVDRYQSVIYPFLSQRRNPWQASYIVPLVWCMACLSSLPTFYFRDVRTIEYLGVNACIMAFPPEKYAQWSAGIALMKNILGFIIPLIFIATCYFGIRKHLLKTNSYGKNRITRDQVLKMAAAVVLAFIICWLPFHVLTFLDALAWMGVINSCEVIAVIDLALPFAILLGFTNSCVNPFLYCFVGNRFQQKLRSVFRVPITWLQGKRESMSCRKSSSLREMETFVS

[3] = DRUGMATRIX: ATPase, Na+/K+ enzyme inhibition (substrate: ATP); type: tissue-based, Sus scrofa, Heart; conditions: Not Active = under 50% inhibition at 10 µM
[4] = DRUGMATRIX: Nicotinic Acetylcholine radioligand binding (ligand: [125I] Epibatidine); type: cell membranes, Membrane; conditions: imr-32; Not Active = under 50% inhibition at 10 µM
[5] = DRUGMATRIX: Potassium Channel [KATP] radioligand binding (ligand: [3H] Glyburide); type: cell membranes, Membrane; conditions: hit-t15; Not Active = under 50% inhibition at 10 µM
Interstitial collagenase = molecular target: T2, Interstitial collagenase (Homo sapiens, UniProt P03956); type: tissue-based, Rheumatoid synovial fibroblasts;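 note: MMP-1 enzyme inhibition assay using a peptide substrate; in other assays of this panel Not Active means under 50% inhibition at 10 µM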
T2 sequence (P03956 whole entry): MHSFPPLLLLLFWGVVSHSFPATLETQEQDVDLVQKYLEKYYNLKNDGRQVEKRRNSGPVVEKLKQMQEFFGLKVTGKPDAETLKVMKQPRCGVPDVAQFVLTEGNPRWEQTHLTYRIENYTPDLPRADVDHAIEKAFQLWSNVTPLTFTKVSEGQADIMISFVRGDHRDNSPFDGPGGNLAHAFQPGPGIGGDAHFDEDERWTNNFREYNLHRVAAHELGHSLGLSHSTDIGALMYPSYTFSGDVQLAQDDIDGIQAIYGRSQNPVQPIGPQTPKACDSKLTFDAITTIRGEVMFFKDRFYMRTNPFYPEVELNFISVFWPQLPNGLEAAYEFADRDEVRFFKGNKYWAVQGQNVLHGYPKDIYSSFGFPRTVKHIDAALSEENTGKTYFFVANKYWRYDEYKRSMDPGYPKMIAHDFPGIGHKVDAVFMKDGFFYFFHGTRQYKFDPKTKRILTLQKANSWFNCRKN

[6] = molecular target: Epidermal growth factor receptor (Homo sapiens, UniProt P00533); assay: DRUGMATRIX: Protein Tyrosine Kinase, EGF Receptor enzyme inhibition (substrate: Poly(Glu:Tyr)); type: cell-based, Insect cells; conditions: insect cells; Not Active = under 50% inhibition at 10 µM

Sodium-dependent noradrenaline transporter, sequence (P23975 whole entry): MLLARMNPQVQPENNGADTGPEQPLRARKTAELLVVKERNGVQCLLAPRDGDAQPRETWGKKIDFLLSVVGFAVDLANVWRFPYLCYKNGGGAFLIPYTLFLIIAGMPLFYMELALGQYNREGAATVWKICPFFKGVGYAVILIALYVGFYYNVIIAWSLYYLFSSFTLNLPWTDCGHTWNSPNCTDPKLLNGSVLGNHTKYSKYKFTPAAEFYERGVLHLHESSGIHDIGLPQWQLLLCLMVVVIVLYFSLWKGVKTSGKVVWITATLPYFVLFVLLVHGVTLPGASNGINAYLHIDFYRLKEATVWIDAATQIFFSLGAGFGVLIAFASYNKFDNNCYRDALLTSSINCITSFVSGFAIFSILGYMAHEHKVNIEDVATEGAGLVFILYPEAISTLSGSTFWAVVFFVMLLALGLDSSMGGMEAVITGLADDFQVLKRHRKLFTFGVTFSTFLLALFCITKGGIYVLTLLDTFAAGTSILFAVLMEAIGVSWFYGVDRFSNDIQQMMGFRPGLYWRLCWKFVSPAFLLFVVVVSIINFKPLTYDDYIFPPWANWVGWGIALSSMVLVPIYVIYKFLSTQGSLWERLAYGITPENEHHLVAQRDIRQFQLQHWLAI

| Molecule | IC50 ([1]; mdck) | IC50 [2] | IC50 [3] | Ki [3] | IC50 [4] | Ki [4] | IC50 [5] | Ki [5] | IC50 (Interstitial collagenase) | IC50 [6] | IC50 ([1]; read-out: IC50) [nM] | Ki ([1]; read-out: Ki) [nM] | Ki ([1]; mdck) | Ki [2] | Ki (Interstitial collagenase) | Ki [6] |
| --- | --- | --- | --- | --- | --- | --- | --- | --- | --- | --- | --- | --- | --- | --- | --- | --- |
| C/C=C\c1ccc(O)c(OC)c1 [ISOEUGENOL] | Not Active | Not Active | Not Active | Not Active | Not Active | Not Active | Not Active | Not Active | Not Active | Not Active |  |  |  |  |  |  |
| NC[C@H]1O[C@H](O[C@H]2[C@H](O)[C@@H](O[C@H]3O[C@H](CO)[C@@H](O)[C@H](N)[C@H]3O)[C@H](N)C[C@@H]2N)[C@H](O)[C@@H](O)[C@@H]1O [KANAMYCIN] | Not Active | Not Active | Not Active | Not Active | Not Active | Not Active | Not Active | Not Active | Not Active | Not Active |  |  |  |  |  |  |
| CC(C(=O)O)c1ccc(CC2CCCC2=O)cc1 (stereo not drawn) [LOXOPROFEN] | Not Active | Not Active | Not Active | Not Active | Not Active | Not Active | Not Active | Not Active | Not Active | Not Active |  |  |  |  |  |  |
| Cc1cccc(Nc2ccccc2C(=O)O)c1C [MEFENAMIC ACID] | Not Active | Not Active | Not Active | Not Active | Not Active | Not Active | Not Active | Not Active | Not Active | Not Active |  |  |  |  |  |  |
| CC(=O)O[C@]1(C(C)=O)CC[C@H]2[C@@H]3C=C(C)C4=CC(=O)CC[C@]4(C)[C@H]3CC[C@@]21C [MEGESTROL ACETATE] | Not Active | Not Active | Not Active | Not Active | Not Active | Not Active | Not Active | Not Active | Not Active | Not Active |  |  |  |  |  |  |
| COc1ccccc1OCC(O)COC(N)=O (stereo not drawn) [METHOCARBAMOL] | Not Active | Not Active | Not Active | Not Active | Not Active | Not Active | Not Active | Not Active | Not Active | Not Active |  |  |  |  |  |  |
| CN(Cc1cnc2nc(N)nc(N)c2n1)c1ccc(C(=O)N[C@@H](CCC(=O)O)C(=O)O)cc1 [METHOTREXATE] | Not Active | Not Active | Not Active | Not Active | Not Active | Not Active | Not Active | Not Active | Not Active | Not Active |  |  |  |  |  |  |
| COC(=O)c1ccccc1O [METHYL SALICYLATE] | Not Active | Not Active | Not Active | Not Active | Not Active | Not Active | Not Active | Not Active | Not Active | Not Active |  |  |  |  |  |  |
| COc1ccc2cc(CCC(C)=O)ccc2c1 [NABUMETONE] |  | Not Active | Not Active | Not Active | Not Active | Not Active | Not Active | Not Active | Not Active | Not Active | 1870 | 1850 |  |  |  |  |
| O=C(O)c1cccnc1 [NIACIN] | Not Active | Not Active | Not Active | Not Active | Not Active | Not Active | Not Active | Not Active | Not Active | Not Active |  |  |  |  |  |  |
| CNC(=C[N+](=O)[O-])NCCSCc1csc(CN(C)C)n1 [NIZATIDINE] | Not Active | Not Active | Not Active | Not Active | Not Active | Not Active | Not Active | Not Active | Not Active | Not Active |  |  |  |  |  |  |
| C[C@]12C/C(=C/O)C(=O)C[C@@H]1CC[C@@H]1[C@@H]2CC[C@@]2(C)[C@H]1CC[C@]2(C)O [OXYMETHOLONE] | Not Active | Not Active | Not Active | Not Active | Not Active | Not Active | Not Active | Not Active | Not Active | Not Active |  |  |  |  |  |  |
| CC(C)(CO)C(O)C(=O)NCCCO (stereo not drawn) [PANTHENOL] | Not Active | Not Active | Not Active | Not Active | Not Active | Not Active | Not Active | Not Active | Not Active | Not Active |  |  |  |  |  |  |
| COc1ccc(Cc2nccc3cc(OC)c(OC)cc23)cc1OC [PAPAVERINE] | Not Active | Not Active | Not Active | Not Active | Not Active | Not Active | Not Active | Not Active | Not Active | Not Active |  |  |  |  |  |  |
| OCCN1CCN(CCCN2c3ccccc3Sc3ccc(Cl)cc32)CC1 [PERPHENAZINE] | Not Active | Not Active | Not Active | Not Active | Not Active | Not Active | Not Active | Not Active | Not Active | Not Active |  |  |  |  |  |  |
| CCCCC1C(=O)N(c2ccccc2)N(c2ccccc2)C1=O [PHENYLBUTAZONE] | Not Active | Not Active | Not Active | Not Active | Not Active | Not Active | Not Active | Not Active | Not Active | Not Active |  |  |  |  |  |  |
| Cc1cccc(Nc2cc(Cl)nc(SCC(=O)O)n2)c1C [PIRINIXIC ACID] | Not Active | Not Active | Not Active | Not Active | Not Active | Not Active | Not Active | Not Active | Not Active | Not Active |  |  |  |  |  |  |
| CC[C@H](C)C(=O)O[C@H]1C[C@H](O)C=C2C=C[C@H](C)[C@H](CC[C@@H](O)C[C@@H](O)CC(=O)O)[C@H]21 [PRAVASTATIN] | Not Active | Not Active | Not Active | Not Active | Not Active | Not Active | Not Active | Not Active | Not Active | Not Active |  |  |  |  |  |  |
| CC(C)(Sc1cc(C(C)(C)C)c(O)c(C(C)(C)C)c1)Sc1cc(C(C)(C)C)c(O)c(C(C)(C)C)c1 [PROBUCOL] | Not Active | Not Active | Not Active | Not Active | Not Active | Not Active | Not Active | Not Active | Not Active | Not Active |  |  |  |  |  |  |
| COBALT(II) ACETYLACETONATE | Not Active | Not Active | Not Active | Not Active | Not Active | Not Active | Not Active | Not Active | Not Active | Not Active |  |  | Not Active | Not Active | Not Active | Not Active |
| INSULIN HUMAN | Not Active | Not Active | Not Active | Not Active | Not Active | Not Active | Not Active | Not Active | Not Active | Not Active |  |  | Not Active | Not Active | Not Active | Not Active |
| POLYVINYL ALCOHOL | Not Active | Not Active | Not Active | Not Active | Not Active | Not Active | Not Active | Not Active | Not Active | Not Active |  |  | Not Active | Not Active | Not Active | Not Active |
